Source: ChEMBL document CHEMBL5727603 (2020)

Biological target: Rho-associated protein kinase 2 (Homo sapiens, UniProt O75116)
Assay: Binding Assay: ROCK-II inhibitory activity can be measured using the ROCK-II Assay Kit (Molecular Devices, inc.; Sunnyvale, Calif.).

Rho-associated protein kinase 2, sequence (O75116 whole entry): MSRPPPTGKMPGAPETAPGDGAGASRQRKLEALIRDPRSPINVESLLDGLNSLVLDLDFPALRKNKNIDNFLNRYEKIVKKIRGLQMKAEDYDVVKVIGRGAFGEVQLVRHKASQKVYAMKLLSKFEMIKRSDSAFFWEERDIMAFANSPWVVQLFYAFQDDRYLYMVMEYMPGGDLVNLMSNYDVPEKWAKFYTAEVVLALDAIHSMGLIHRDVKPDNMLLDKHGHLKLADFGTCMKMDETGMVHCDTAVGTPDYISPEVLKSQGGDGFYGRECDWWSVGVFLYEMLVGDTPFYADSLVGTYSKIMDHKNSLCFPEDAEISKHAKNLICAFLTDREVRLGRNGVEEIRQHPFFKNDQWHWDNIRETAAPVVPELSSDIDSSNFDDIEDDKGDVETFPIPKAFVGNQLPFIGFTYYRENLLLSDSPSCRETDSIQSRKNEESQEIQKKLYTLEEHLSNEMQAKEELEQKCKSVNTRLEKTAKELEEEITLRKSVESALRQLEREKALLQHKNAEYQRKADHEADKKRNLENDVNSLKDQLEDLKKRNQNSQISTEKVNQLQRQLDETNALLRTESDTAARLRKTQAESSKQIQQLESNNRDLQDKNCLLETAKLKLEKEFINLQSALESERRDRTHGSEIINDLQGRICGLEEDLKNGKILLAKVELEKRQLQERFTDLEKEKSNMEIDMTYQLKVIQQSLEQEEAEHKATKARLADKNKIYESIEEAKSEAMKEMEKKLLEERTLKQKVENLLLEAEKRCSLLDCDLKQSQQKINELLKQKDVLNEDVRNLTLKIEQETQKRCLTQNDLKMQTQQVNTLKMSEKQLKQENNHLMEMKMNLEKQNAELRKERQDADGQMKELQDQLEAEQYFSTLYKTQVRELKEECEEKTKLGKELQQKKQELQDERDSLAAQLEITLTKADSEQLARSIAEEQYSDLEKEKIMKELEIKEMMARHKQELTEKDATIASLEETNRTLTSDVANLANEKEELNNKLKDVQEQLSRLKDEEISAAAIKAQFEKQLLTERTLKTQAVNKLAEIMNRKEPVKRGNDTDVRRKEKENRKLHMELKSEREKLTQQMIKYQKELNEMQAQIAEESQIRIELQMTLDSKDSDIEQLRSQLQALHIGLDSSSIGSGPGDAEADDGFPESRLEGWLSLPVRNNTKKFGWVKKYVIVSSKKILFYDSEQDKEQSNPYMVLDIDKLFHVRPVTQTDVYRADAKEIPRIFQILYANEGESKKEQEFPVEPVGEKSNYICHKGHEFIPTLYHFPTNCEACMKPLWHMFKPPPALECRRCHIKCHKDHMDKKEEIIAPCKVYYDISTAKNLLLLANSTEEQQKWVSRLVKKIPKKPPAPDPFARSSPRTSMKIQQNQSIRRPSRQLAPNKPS

IC50: 8.3 µM
SMILES: O=C(Nc1ccccc1-c1nc(Nc2ccc3[nH]ncc3c2)c2ccccc2n1)c1ccccn1
